The nature of data set [1]: Solubility of crystalline mesylate salts 1-11A and 1-11B. The class given is physicochemical. As to the method:
The amorphous mesylate salt was recrystallized from 50:50 Ethanol:THF to give a crystalline powder (Salt 1-11A). The X-ray powder diffraction pattern (XRPD) of the recrystallized mesylate salt 1-11A (FIG. 2) is indicative of crystalline material with multiple diffraction peaks between 5° and 30° 2-theta.
A second batch of crystalline mesylate salt (Salt 1-11B) was obtained by the following procdeure. To a stirred suspension of 1-11 (4.026 g, 9.22 mmol) in MeOH was slowly added at room temperature (RT) one equivalent of a 0.3M solution of methanesulfonic acid (30.73 mL). After all the solid had dissolved, the mixture was filtered into a flask and concentrated under reduced pressure while cooled to about 10° C. The resulting solid was suspended with 200 mL of ethylacetate, filtered, and dried to afford the mesylate salt. […] This crystalline form is different by XRPD than the one recrystallized from the amorphous salt in EtOH/THF (Salt 1-11A).

Data set [2] is described as follows: Solubility of HCl salt 1-11D suspended in solvents for 7 days at room temperature. The class given is physicochemical. The following applies: RT for 7 days. As to the method:
HCl salt 1-11D is also crystalline as witnessed by the X-ray powder diffraction pattern of the material, having multiple diffraction peaks between 5° and 30° 2-theta. […] (rate of 10° C./min). The compound is birefringent under plane polarized light. It is needle-shaped particles of approximately 5-25 micron. The solubility of salt 1-11D was measured in water and various organic solvents. Table VI below summarizes the solubility of the 1-11D suspended in various solvents for 7 days at room temperature.

The structures appear in SMILES notation. Structures can show the parent of a compound that is named as a salt.

As to `CS(=O)(=O)N1CCN(Cc2ccc3[nH]c(-c4cc5ccccc5[nH]c4=O)cc3c2)CC1` [Salt 1-11B], the solubility in data set [1] (Acetonitrile) turned out to be 30 µg/mL; in data set [1] (Isopropanol), 3 µg/mL; in data set [1] (Water), 90 µg/mL.

`CS(=O)(=O)N1CCN(Cc2ccc3[nH]c(-c4cc5ccccc5[nH]c4=O)cc3c2)CC1` [Salt 1-11D]: the solubility in data set [2] (Aqueous ETOH) is 4340 µg/mL; in data set [2] (Aqueous IPA) it was 3990 µg/mL; in data set [2] (Ethanol), 130 µg/mL; in data set [2] (Isopropanol) it was 57 µg/mL; in data set [2] (Water), 620 µg/mL.

Source of the values: patent US6656942B2, “Orally active salts with tyrosine kinase activity” (Merck & Co., Inc., priority 2000, dated 2003).
